# Source: ChEMBL document CHEMBL1201862, “PubChem BioAssay data set” (2004)
# Active and inactive are the calls of the source. Cut-off read from the data, not from the text of the source: actives have a measured IC50 and inactives only a lower limit.
# Target: Envelope glycoprotein gp160 (Human immunodeficiency virus 1, UniProt Q6QLK5)
# Assay: inhibitors of HIV fusion peptide binding, primary screen, biochemical, uHTS, fluorescence dequenching (AID 1986)
# Sequence of Envelope glycoprotein gp160 (Q6QLK5 whole entry, the tested form may be a part): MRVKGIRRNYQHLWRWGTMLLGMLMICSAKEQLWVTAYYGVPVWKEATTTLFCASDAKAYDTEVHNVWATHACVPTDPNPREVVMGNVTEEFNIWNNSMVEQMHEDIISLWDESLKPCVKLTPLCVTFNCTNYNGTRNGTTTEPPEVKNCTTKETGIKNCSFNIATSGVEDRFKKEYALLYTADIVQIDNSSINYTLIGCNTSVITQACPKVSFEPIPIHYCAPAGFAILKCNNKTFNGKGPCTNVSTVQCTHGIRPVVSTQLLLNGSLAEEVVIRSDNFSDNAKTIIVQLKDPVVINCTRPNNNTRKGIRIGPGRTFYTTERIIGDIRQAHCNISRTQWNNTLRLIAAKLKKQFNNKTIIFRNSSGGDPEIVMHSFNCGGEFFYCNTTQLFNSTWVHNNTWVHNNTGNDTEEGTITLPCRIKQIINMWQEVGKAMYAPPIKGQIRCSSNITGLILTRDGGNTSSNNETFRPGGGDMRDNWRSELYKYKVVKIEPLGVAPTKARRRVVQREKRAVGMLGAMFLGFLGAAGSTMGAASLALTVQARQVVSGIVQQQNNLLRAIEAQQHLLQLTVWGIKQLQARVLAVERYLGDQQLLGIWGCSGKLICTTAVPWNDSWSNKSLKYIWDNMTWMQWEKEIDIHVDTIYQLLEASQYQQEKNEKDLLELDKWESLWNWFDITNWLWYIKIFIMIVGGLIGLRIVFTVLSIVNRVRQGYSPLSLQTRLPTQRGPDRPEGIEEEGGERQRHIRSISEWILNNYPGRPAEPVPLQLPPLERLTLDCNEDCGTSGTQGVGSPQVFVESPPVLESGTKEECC
row,Compound,IC50
1,O=C(O)CCn1cc(/C=C/C(=O)c2ccc(Cl)cc2)c(-c2ccc(Br)cc2)n1,21.4 µM (active)
2,O=C(O)CN1C(=O)/C(=C\c2cc(Br)ccc2OCc2ccc(Cl)cc2)SC1=S,14.3 µM (active)
3,COc1cc(/C=C2/C(=O)NN(c3ccc(Cl)cc3)C2=O)ccc1OC(=O)c1ccco1,11.8 µM (active)
4,CCOC(=O)c1sc(N2C(=O)C(O)=C(C(=O)c3ccco3)C2c2cccc([N+](=O)[O-])c2)nc1C (stereo unspecified),19 µM (active)
5,COc1ccccc1/C=C1\SC(=S)N(CCC(=O)Nc2ccc(C(=O)O)c(O)c2)C1=O,14.5 µM (active)
6,Cc1ccccc1N/N=C/c1sc(=O)n(Cc2cccc(C(=O)O)c2)c1Cl,15.6 µM (active)
